For orientation: melting point means the temperature of the solid-liquid transition.

Data set [1] concerns Strain IIIB, wild type HIV-LAI strain. In words: Antiviral spectrum cellular assay, strain IIIB. Type of data set: cell-based. The following applies: Human immunodeficiency virus 1, IIIB, read-out: pEC50 against strain IIIB (converted). The method, then: (§1) Because of the increasing emergence of drug resistant HIV strains, the present compounds were tested for their potency against clinically isolated HIV strains harboring several mutations. These mutations are associated with resistance to reverse transcriptase inhibitors and result in viruses that show various degrees of phenotypic cross-resistance to the currently commercially available drugs such as for instance AZT and delavirdine.
(§2) The antiviral activity of the compound of the present invention is evaluated in the presence of wild type HIV and HIV mutants bearing mutations at the reverse transcriptase gene. The activity of the compounds is evaluated using a cellular assay and the residual activity is expressed in pEC50 values. The columns IIIB and A-G in the table list the pEC50 values against various strains IIIB, A-G.
Strain IIIB is wild type HIV-LAI strain;

Data set [2] concerns Strain C, mutation L100I in HIV reverse transcriptase. As to the kind of experiment: Antiviral spectrum cellular assay, strain C. Type of data set: cell-based. The note with it: Human immunodeficiency virus 1, read-out: pEC50 against strain C (converted). The method, then: as §1, §2
Strain C contains mutation L100I in HIV reverse transcriptase, […]

Data set [3] concerns Strain F, mutations K101E and K103N in HIV reverse transcriptase. In words: Antiviral spectrum cellular assay, strain F. Type of data set: cell-based. The method, then:
as §1, §2
Strain F contains mutations K101E and K103N in HIV reverse transcriptase.

Data set [4] relates to Strain G, mutations L100I, K103N, E138G, V179I, Y181C, L214F, V276V/I and A327A/V in HIV reverse transcriptase. As to the kind of experiment: Antiviral spectrum cellular assay, strain G. It counts as cell-based. The note with it: for EC50: Human immunodeficiency virus 1, read-out: pEC50 against strain G (converted). How it is done: as §1, §2
Data set [5] has as its system Strain B, mutation K103N in HIV reverse transcriptase. In words: Antiviral spectrum cellular assay, strain B. It counts as cell-based. The following applies: Human immunodeficiency virus 1, read-out: pEC50 against strain B (converted). The method, then:
as §1, §2
Strain B contains mutation K103N in HIV reverse transcriptase, […]

For data set [6], the system named is Strain E, mutations L100I and K103N in HIV reverse transcriptase. As to the kind of experiment: Antiviral spectrum cellular assay, strain E. Type of data set: cell-based. How it is done: as §1, §2
Strain E contains mutations L100I and K103N in HIV reverse transcriptase, […]

Data set [7] concerns Strain A, mutation Y181C in HIV reverse transcriptase. In words: Antiviral spectrum cellular assay, strain A. Type of data set: cell-based. The note with it: Human immunodeficiency virus 1, read-out: pEC50 against strain A (converted). How it is done: as §1, §2
Strain A contains mutation Y181C in HIV reverse transcriptase, […]

In data set [8] the test system is Strain D, mutation Y188L and S162K in HIV reverse transcriptase. As to the kind of experiment: Antiviral spectrum cellular assay, strain D. Type of data set: cell-based. The following applies: Human immunodeficiency virus 1, read-out: pEC50 against strain D (converted). How it is done: as §1, §2
Strain D contains mutation Y188L and S162K in HIV reverse transcriptase, […]

The mark [9] stands for this setting: compared to reference compound A.

Consider `Cc1cc(C#N)cc(C)c1Oc1nc(Nc2ccc(C#N)cc2)nc(NO)c1Br` [Compound 1, 4-[[6-hydroxylamino-5-bromo-2-[(4-cyanophenyl)amino]-4-pyrimidinyl]oxy]-3,5-dimethylbenzonitrile], for which the melting point is 211 °C (dec.). Moreover, in data set [1], the EC50 is 3.98 nM. The EC50 in [2] was 1.2 nM. In addition, the EC50 in [3] (Human immunodeficiency virus 1, read-out: pEC50 against strain F (converted)) is 3.63 nM. The “activity against double mutant strain F compared to reference compound A” value in data set [3] (setting [9]) is “improved activity”. The EC50 in data set [4] is 479 nM. In addition, the “activity against multiple mutated strain G compared to reference compound A” value in [4] (setting [9]) was “improved activity”. For the same molecule, the EC50 in data set [5] was 2.34 nM. The EC50 in [6] (Human immunodeficiency virus 1, read-out: pEC50 against strain E (converted)) is 1.86 nM. Moreover, in [6] (setting [9]), the “activity against double mutant strain E compared to reference compound A” value is given as “improved activity”. In addition, the EC50 in data set [7] is 12 nM. The EC50 in data set [8] was 3.02 nM.
In the case of `Cc1cc(C#N)cc(C)c1Oc1nc(Nc2ccc(C#N)cc2)nc(N)c1Br` [Compound A, reference compound], the EC50 in [1] was 2.82 nM; in data set [4], 5750 nM; in [7], 10 nM.

(Values after patent US8119801B2, “HIV inhibiting 2-(4-cyanophenyl)-6-hydroxylaminopyrimidines” (priority 2005, dated 2012).)
